Hematological toxicity data for two molecules are collected here from patent US20260325510A1, “COMBINATIONS COMPRISING AN ATR INHIBITOR AND A PARP INHIBITOR AND METHODS OF USE THEREOF” (Jazz Pharmaceuticals Therapeutics, Inc., priority 2023, published 2026).

Structures are written as SMILES.

Series [1] can be described thus: Baseline monotherapy tolerability, 4 weeks IV (complete blood count). Conditions: 60 mg/kg IV, three times weekly. Format: in vivo, female athymic nude mice. The method, then: Maximum tolerated dose studies were conducted on healthy, 6-8 week-old female athymic nude mice (Jackson Laboratories). For baseline monotherapy tolerability, 60 mg/kg of niraparib both in free and liposomal form was IV administered to nude mice at a dosing schedule of every other day followed by a two-day holiday (i.e., three days per week) for 4-weeks (n=5 for each cohort). Free drug was supplied in hydroxybetacyclodextrin in HEPES Buffered Saline with 5% dextrose, pH adjusted to 7.4. Study mice were then sacrificed at 24-hours post final injection with endpoint blood collection by cardiac puncture. Complete blood count (CBC) was then conducted on a Vetscan HM5 hematology analyzer (Zoetis, New Jersey, USA).
This study was conducted over a 4-week period to better capture hematopoietic turnover. Athymic nude mice were selected due to the presence of normal levels of neutrophils, monocytes, and red blood cells on top of a reduced number of non-functional lymphocytes. The immunocompromised nature of athymic nude mice allowed for better comparative translation of dose sensitivity to fully immunocompromised mice (i.e. NSG) that are required for xenograft studies.

The nature of series [2]: Hematology tolerability study. Conditions: free ATR inhibitor in combination with free niraparib. The format is in vivo, female C57BL/6 mice.
Description: In order to study the effects of hematology tolerability under different dosing regimens, 8-12 week old, female C57BL/6 mice were used. Body weight was measured qd×5, then biweekly to the end of the study. Animals were weighed and monitored for survival and in-life observations were collected at the time of weight measurement. […] Mice were monitored individually to endpoint which was 18 days. Full volume blood was collected by terminal cardiac puncture under isoflurane anesthesia and analyzed for reticulocyte count/number, red blood cell count/number, hemoglobin, hematocrit, platelet count/number, white blood cell count/number, neutrophil count/number, monocyte count/number and lymphocyte count/number.

As for `NC(=O)c1cccc2cn(-c3ccc([C@@H]4CCCNC4)cc3)nc12` [FREE-NIRB, niraparib], the hematological toxicity result in series [1] is “significant hematological toxicity in the form of macrocytic anemia”.
For the molecule `CNCc1ccc(-c2cc(-c3nc(-c4ccc(S(=O)(=O)C(C)C)cc4)cnc3N)on2)cc1` [berzosertib], the hematological toxicity result in series [2] is “severe reticulocytopenia and leukopenia”.
